From patent publication US5973228A, “Coniferin beta-glucosidase cDNA for modifying lignin content in plants” (University of British Columbia, priority 1998, dated 1999)

How the values were obtained:
[1] = target: T1, E. coli-expressed (recombinant) coniferin beta-glucosidase (CBG) (Pinus contorta, UniProt Q9ZT64); experiment: β-glucosidase assay, substrate specificity of E. coli-expressed CBG-cDNA; assay type: biochemical; details: substrate hydrolysis relative to coniferin; 100% activity represents 22pKat; 2 mM glucoside substrate, 0.2M MES pH 5.5, 30° C., 30 min
T1 construct: coding region for the mature protein (i.e. excluding the signal peptide) was amplified; Met-Ala-Ser (three non-CBG vector residues) (N); made in house; host or cells: E. coli BL21 (DE3), vector pET21a
T1 sequence (Q9ZT64 24-513): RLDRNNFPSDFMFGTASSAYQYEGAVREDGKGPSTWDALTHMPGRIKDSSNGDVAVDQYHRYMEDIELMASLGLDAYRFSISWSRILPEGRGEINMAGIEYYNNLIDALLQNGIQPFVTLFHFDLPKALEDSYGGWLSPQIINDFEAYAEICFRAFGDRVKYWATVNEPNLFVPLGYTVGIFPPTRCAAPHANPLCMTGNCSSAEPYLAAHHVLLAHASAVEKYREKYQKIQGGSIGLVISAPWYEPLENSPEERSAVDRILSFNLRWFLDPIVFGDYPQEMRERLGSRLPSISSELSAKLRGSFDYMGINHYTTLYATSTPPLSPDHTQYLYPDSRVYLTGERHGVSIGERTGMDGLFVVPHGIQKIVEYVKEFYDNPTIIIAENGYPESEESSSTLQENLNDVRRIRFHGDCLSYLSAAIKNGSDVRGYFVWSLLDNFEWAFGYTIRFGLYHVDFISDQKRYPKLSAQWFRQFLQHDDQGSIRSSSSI
Description: To express CBG protein in E. coli, the full- length coding region for the mature protein (i.e. excluding the signal peptide) was amplified using the 3' end clone (1A6) as the template with the N-terminal primer, NT1 (5' […] 3', Seq. I.D. No. 9) containing a 5' Nhe1 site, and a C-terminal primer, CT1 (5' […] 3', Seq. I.D. No. 10) containing a Xho 1 site. The resulting 1.5 kb DNA fragment was ligated into Bluescript II KS by T/A cloning as described above. The structure of the junctions of this construct was confirmed by sequencing and it was then inserted as a Nhe1/Xho1 fragment into expression vector pET21a (Novagen). Because, the Nhe1 site was used to introduce the cDNA into the pET vector, three non-CBG amino acids (Met, Ala, Ser) were added to the N-terminus of the expressed protein. To avoid the expression of the vector His-tag at the 3' end, the native stop codon of CBG was included. The expressed protein was thus identical in sequence to the mature CBG expressed in planta, except for the additional tripeptide at the N-terminus. Following transformation into E.coli strain DH5α and verification of the plasmid integrity by restriction digestion, it was introduced into the expression host BL21 (DE3).
To express CBG, the bacteria were grown to log phase (A600 =0.6-0.9) followed by an additional 2-3 h incubation at 29-37° C. in the presence or absence of 0.4-1 mM IPTG. The expressed CBG in the soluble protein fraction was purified by preparative Q-Sepharose chromatography followed by QMA-Memsep (Millipore) chromatography.
(§1) As noted above, the functional characteristic of the CBG enzyme is its ability to hydrolyze coniferin. This activity can be measured using the simple β-glucosidase assay described by Dharwardhana et al. (1995), conducted as follows: enzyme preparations (10-50 μl) and glucoside substrate (coniferin) (2 mM final concentration) in 0.2M MES, pH 5.5 buffer in a final volume of 150 μl are incubated at 30° C. for 30 min. The reaction is stopped by basification of the assay mixture with an equal volume of 0.5M CAPS buffer (Sigma Chemical Co., St. Louis, Mo., pH 10.5 and the activity measured by determining the absorbance of the released aglycone. The activity of the enzyme can be measured not only against coniferin, but also against related glucosides including 4-NPG, 2-NPG, MUG and the synthetic coniferin analog VRA-G. For quantitative calculations, the following analysis wavelengths and values (mM^-1 ×cm^-1) were used: coniferyl alcohol, 325 nm, ε=7.0; sinapyl alcohol, 315 nm, ε=11.2; 2-nitrophenol, 420 nm, ε=4.55, 4-nitrophenol, 400 nm, ε=19.3; 4-methyl umbelliferone, 360 nm, ε=18.25; VRA-G, 490 nm, ε=38.6; salicyl alcohol, 295 nm, ε=3.3.
Soluble proteins and insoluble proteins (inclusion bodies) prepared from induced and uninduced bacterial cells were assayed for coniferin hydrolysis activity by the method described above. […] The activity in this fraction could be increased up to 2-fold by increasing the IPTG concentration from 0.4 -1.0 mM, and by reducing the growing temperature from 37° C. to 29° C. […] This protein was purified by anion exchange chromatography using coniferin as the substrate for monitoring β-glucosidase activity. The purified enzyme often migrated as a doublet on nondenaturing gels. […] The latter would result in the synthesis of a polypeptide that is truncated at the N-terminus, as opposed to the full-length polypeptide initiated by ribosome binding to the standard ribosome binding site in the vector.

[2] = target: T2, native coniferin beta-glucosidase (CBG) purified from pine xylem (Pinus contorta, UniProt Q9ZT64); experiment: β-glucosidase assay, substrate specificity of coniferin β-glucosidase purified from pine xylem; assay type: biochemical; details: substrate hydrolysis relative to coniferin; 100% activity represents 14pKat; 2 mM glucoside substrate, 0.2M MES pH 5.5, 30° C., 30 min
T2 construct: from tissue; host or cells: Pinus contorta xylem
T2 sequence (Q9ZT64 24-513): T1 sequence (Q9ZT64 24-513)
Description: Coniferin beta-glucosidase enzyme was purified from Pinus contorta xylem tissue as described by Dharmwardhana et al. (1995). In order to determine the N-terminal amino acid sequence of the purified enzymne, it was run on native PAGE gels, stained for activity on the synthetic coniferin substrate VRA-G and the staining band excised and subjected to SDS-PAGE. The protein was then transferred to an Immobilon membrane for N-terminal amino acid sequencing using an Applied Biosystems 470A gas phase sequencer (Edman degradation).
as §1

Compound	Relative activity, E. coli CBG [1]	Relative activity, Native CBG [2]
O=[N+]([O-])c1ccccc1O[C@@H]1O[C@H](CO)[C@@H](O)[C@H](O)[C@H]1O [2-nitrophenyl-β-glucoside, 2-nitrophenyl β-glucoside]	50%	51%
Cc1cc(=O)oc2cc(O[C@@H]3O[C@H](CO)[C@@H](O)[C@H](O)[C@H]3O)ccc12 [4-methyl umbelliferyl-β-glucoside, 4-methylumbelliferyl β-glucoside]	20%	18%
O=[N+]([O-])c1ccc(O[C@@H]2O[C@H](CO)[C@@H](O)[C@H](O)[C@H]2O)cc1 [4-nitrophenyl-β-glucoside, 4-nitrophenyl β-glucoside]	35%	30%
COc1cc(/C=C/CO)ccc1O[C@@H]1O[C@H](CO)[C@@H](O)[C@H](O)[C@H]1O [coniferin]	100%	100%
COc1cc(/C=C/CO)cc(OC)c1O[C@@H]1O[C@H](CO)[C@@H](O)[C@H](O)[C@H]1O [syringin]	65%	51%
